Our source for the target mRNA knockdown values is the OligoGym collection.

HELM strings list units from the 5' end as sugar, base in round brackets, then linkage (d deoxyribose, r ribose, m 2'-O-methyl, p phosphodiester). Strings are as the collection lists them, not checked against the first reports. ss, as = sense and antisense strand; [hna] = hexitol nucleic acid; [fl2r] = 2'-fluoro
Further: test system not given here.

For the data set the following is noted: siRNA.
For “RNA1{r(G)p.r(C)p.r(C)p.r(U)p.r(C)p.r(U)p.r(C)p.r(U)p.r(A)p.r(U)p.r(C)p.r(C)p.r(U)p.r(U)p.r(A)p.r(G)p.r(C)p.r(U)p.r(U)p.r(T)p.r(T)}|RNA2{r(A)p.r(A)p.r(G)p.r(C)p.[fl2r](U)p.r(A)p.r(A)p.r(G)p.r(G)p.r(A)p.[fl2r](U)p.r(A)p.r(G)p.r(A)p.r(G)p.r(A)p.r(G)p.r(G)p.r(C)p.r(T)p.r(T)}$$$RNA1{StrandType:ss}|RNA2{StrandType:as}$”, the target mRNA knockdown was determined as 48%.

“RNA1{r(A)p.r(C)p.r(G)p.r(G)p.r(C)p.r(U)p.r(C)p.r(G)p.r(C)p.r(U)p.[fl2r](A)p.r(C)p.r(C)p.r(C)p.r(U)p.r(C)p.r(G)p.r(A)p.r(C)p.r(T)p.r(T)}|RNA2{r(G)p.r(U)p.r(C)p.r(G)p.r(A)p.r(G)p.r(G)p.r(G)p.r(U)p.r(A)p.r(G)p.r(C)p.r(G)p.r(A)p.r(G)p.r(C)p.r(C)p.r(G)p.r(U)p.r(T)p.r(T)}$$$RNA1{StrandType:ss}|RNA2{StrandType:as}$” showed a target mRNA knockdown of 83%.

“RNA1{r(G)p.r(A)p.r(C)p.[fl2r](C)p.r(A)p.r(C)p.r(G)p.r(A)p.r(A)p.r(G)p.r(A)p.r(G)p.r(U)p.[fl2r](U)p.r(A)p.r(A)p.r(C)p.r(C)p.r(C)p.r(T)p.r(T)}|RNA2{r(G)p.r(G)p.r(G)p.r(U)p.[fl2r](U)p.r(A)p.r(A)p.r(C)p.r(U)p.r(C)p.r(U)p.r(U)p.r(C)p.r(G)p.[fl2r](U)p.r(G)p.r(G)p.r(U)p.r(C)p.r(T)p.r(T)}$$$RNA1{StrandType:ss}|RNA2{StrandType:as}$” gave a target mRNA knockdown of 85%. With “RNA1{r(A)p.r(A)p.r(C)p.r(C)p.m(C)p.r(A)p.r(A)p.r(A)p.r(G)p.r(G)p.r(G)p.m(G)p.r(A)p.r(G)p.r(U)p.m(U)p.r(G)p.r(C)p.r(U)p.r(T)p.r(T)}|RNA2{r(A)p.r(G)p.m(C)p.r(A)p.r(A)p.r(C)p.r(U)p.r(C)p.r(C)p.r(C)p.r(C)p.r(U)p.r(U)p.m(U)p.r(G)p.r(G)p.r(G)p.r(U)p.r(U)p.r(T)p.r(T)}$$$RNA1{StrandType:ss}|RNA2{StrandType:as}$”, the target mRNA knockdown stood at 92%. With “RNA1{r(G)p.r(G)p.r(G)p.r(A)p.r(G)p.r(G)p.r(U)p.r(C)p.r(U)p.r(U)p.r(A)p.r(G)p.r(A)p.r(A)p.r(A)p.r(A)p.r(C)p.r(A)p.r(C)p.r(T)p.r(T)}|RNA2{r(G)p.r(U)p.r(G)p.r(U)p.r(U)p.r(U)p.r(U)p.r(C)p.m(U)p.r(A)p.r(A)p.r(G)p.r(A)p.r(C)p.r(C)p.r(U)p.r(C)p.r(C)p.r(C)p.r(T)p.r(T)}$$$RNA1{StrandType:ss}|RNA2{StrandType:as}$” the figure was 82%; with “RNA1{[hna](G)p.[hna](A)p.[hna](C)p.r(G)p.r(U)p.r(A)p.r(A)p.r(A)p.r(C)p.r(G)p.r(G)p.r(C)p.r(C)p.r(A)p.r(C)p.r(A)p.r(A)p.[hna](G)p.[hna](U)p.[hna](U)p.d(T)}|RNA2{[fl2r](A)p.m(C)p.[fl2r](U)p.m(U)p.[fl2r](G)p.m(U)p.[fl2r](G)p.m(G)p.[fl2r](C)p.m(C)p.[fl2r](G)p.m(U)p.[fl2r](U)p.m(U)p.[fl2r](A)p.m(C)p.[fl2r](G)p.m(U)p.[fl2r](C)p.m(G)p.[fl2r](C)}$$$RNA1{StrandType:ss}|RNA2{StrandType:as}$”, 81.8%; with “RNA1{r(G)p.r(C)p.r(A)p.r(G)p.r(C)p.r(A)p.r(C)p.r(G)p.r(A)p.r(C)p.r(U)p.r(U)p.r(C)p.r(U)p.r(U)p.r(C)p.r(A)p.r(A)p.r(G)p.r(T)p.r(T)}|RNA2{[fl2r](C)p.[fl2r](U)p.[fl2r](U)p.r(G)p.r(A)p.r(A)p.r(G)p.r(A)p.r(A)p.r(G)p.[fl2r](U)p.[fl2r](C)p.r(G)p.[fl2r](U)p.r(G)p.[fl2r](C)p.[fl2r](U)p.r(G)p.[fl2r](C)p.r(T)p.r(T)}$$$RNA1{StrandType:ss}|RNA2{StrandType:as}$”, 83%.
